Patent publication US6372884B1, “Biologically active compounds and methods of constructing and using the same” (priority 1987, dated 2002)
Ends that are not written are not given here.

Assays:
L cells = assay: Inhibition of L cell DNA synthesis (tritiated thymidine); format: cell-based, murine; conditions: tritiated thymidine incorporation after 24 hours, FIGS. 3 and 4
Experimental: Reovirus type 3 inhibits host cell DNA synthesis upon receptor perturbation. This effect is not due to infection of cells as replication defective reovirus type 3 particles retain this property. L cells were cultured at 5 ×10^4 cells per well of 96 well microtiter plates in 100 μl media for 24 hours. Reovirus type 3 particles (A) were added and incubated for an additional 24 hours prior to the addition of tritiated thymidine. Purified monoclonal antibodies 87.92.6 or HO 22.1 (B) were added for 1 hour at 37° C., then the culture media removed and replaced with 100 μl fresh media for 24 hours, prior to the addition of tritiated thymidine. The cells were incubated for an additional 4-6 hours and counts per minute (CPM) incorporated were determined.
87.92.6 is effective only as a native antibody while monomeric Fab fragments have no effect. VL peptide was synthesized with an additional amino terminal cysteine residue (VLSH) to form a dimeric peptide. VLSH peptide was dimerized by stirring a 5 mg/ml solution in 0.1 M ammonium bicarbonate overnight at 23° C. exposed to air. The peptides were then lyophilized. Dimerization was confirmed by Ellman determination according to the procedure of Ellman, G. L. Arch. […] Tritiated thymidine was added for an additional 4-6 hours, and counts per minute (CPM) incorporated was determined. Per cent inhibition was determined by the formula: [formula]

[1] = test system: Thy 1.2 molecules on R1.1 cells; assay: Expression of Thy 1.2 molecules, flow cytometry with HO 13.4; format: cell-based, murine; conditions: for expression of Thy 1.2 molecules: 1 hour at 37° C., up to 500 μg/ml peptide, FIGS. 5A-D
[2] = test system: reovirus type 3 receptor on R1.1 cells; assay: Down-modulation of reovirus type 3 receptor, flow cytometry with 87.92.6; format: cell-based, murine; conditions: for level of expression of the reovirus type 3 receptor: 1 hour at 37° C., up to 500 μg/ml peptide, FIGS. 5A-D; for reovirus type 3 receptor expression (decrease in mean channel fluorescence): peptides 100 μg/ml, three experiments, FIG. 6
[3] = test system: C3H female mouse spleenocytes; assay: Lymphocyte proliferation with or without concanavalin A; format: cell-based; conditions: for inhibition of spontaneous lymphocyte proliferation: absence of con A, FIG. 7A; for inhibition of con A induced lymphocyte proliferation: presence of con A, FIGS. 7B, 8A, 8B; for biologic activity compared with VL peptide: summary statement in the discussion
[4] = Size-exclusion chromatography of oxidized peptides (Sephadex G-10); format: physicochemical; conditions: reduced versus non-reduced peptides
[5] = Rate of loss of sulfhydryls on air oxidation (Ellman determination); format: physicochemical; conditions: 2 mg/ml in 0.1 M NaHCO3, 37° C., exposed to air, FIG. 23
[6] = test system: reovirus type 3 receptor on L cells; assay: Inhibition of binding of radioiodinated reovirus particles to L cells; parameters: species or system murine; conditions: for binding to the reovirus type 3 receptor compared with VL peptide: summary statement in the discussion
monoclonal antibody 9BG5 = assay: Inhibition of binding of radioiodinated reovirus type 3 particles to 9BG5 coated wells; parameters: species or system mouse; conditions: for binding to neutralizing monoclonal antibody 9BG5, variant peptide compared with VL peptide: relative to VL peptide
Experimental: The wells of microtiter plates were coated with neutralizing anti-reovirus type 3 monoclonal antibody 9BG5 or irrelevant class matched monoclonal A11 by adsorption to staphylococcal protein A (SPA). SPA (sigma Chemical Co., St. Louis, Mo.) was diluted to 5 μg/ml in 0.1 M NaHCO3 pH 9.6 and 50 μl/well dispensed into 96 well polystyrene plates. Following overnight incubation at 4° C., the. wells were decanted, washed three times in PBS, and blocked with 2% BSA in PBS with 0.1% NaN3 for one hour at 37° C. The wells were decanted, washed three times in PBS and monoclonal antibody 9BG5 diluted to 10 μg/ml in 1% BSA in PBS with 0.1% NaN3 was added (50 μl/well) for 1-3 hours at 37° C. […] The wells were decanted and washed three times in PBS. Competitors were added at the concentrations noted (100 μl/well) diluted in 0.5% BSA in 5 mM phosphate buffer with 0.45% NaCl and preincubated for 45-60 minutes at 23° C. […] Following preincubation with inhibitors, radioiodinated reovirus type 3 particles diluted in 1% BSA in PBS with 0.1% NaN3 were added (5-10×10^5 CPM per well), and the incubation continued for 45 minutes. Wells were decanted, washed 8-10 times with PBS and the CPM bound determined. […] As shown in FIGS. 10A-C, 6,700 CPM were bound to 9BG5 coated wells and 500 CPM were bound to control (A11 ) coated wells in the absence of inhibitors. The mean ± standard deviation of binding inhibition (Determined as noted for FIG. 9) of replicate wells is shown. Control peptide B was used in this study. The competitor peptides in FIGS. 15A and 15B are those described herein. Competitor peptide VLA6 is identical to VL except that alanine is substituted for asparagine at position 6.

reovirus type 1 [7] = assay: Delayed type hypersensitivity (footpad swelling), reovirus type 1; format: in vivo, mice; conditions: footpad challenge with virus
Experimental: (§1) FIG. 17 illustrates data for mice immunized with the reovirus types noted by injection of 10^7 PFU subcutaneously, or with the peptides noted at a dose of 100 μg split into two injections subcutaneously; one week later, mice were challenged with virus or peptides in the footpads; footpad swelling was determined as indicated in the following description 48 hours after challenge; the mean +SEM for groups of mice is shown.
(§2) For the study of DTH response, groups of mice were inoculated with either synthetic peptide or live reovirus type 3 subcutaneously (s.c.) in two separate sites on the dorsal flanks of the animal (over each hind limb); 50 μg of a synthetic peptide or 10^7 viral particles/0.2 ml were given in separate injections of 0.1 ml vol. Six days later, animals were challenged in the left footpad with 3×10^7 viral particles suspended in saline containing 2% gelatin (30 μl). Footpad swelling was recorded 24 hr later in a blind fashion (Greene, M. I. and Weiner, H. L., J. Immunol. 125:283-287, 1980). Four animals per group were studied, and the magnitude of the response was determined by comparing the challenged left footpad to the untreated right footpad.

reovirus type 3 [8] = assay: Delayed type hypersensitivity (footpad swelling), reovirus type 3; format: in vivo, mice
Experimental: as §1, §2

[9] = test system: reovirus type 3 receptor (Reo3R); assay: Flow cytometry: inhibition of 87.92.6 binding to cells; parameters: species or system murine; conditions: for inhibition of binding of 87.92.6 to murine L cells / inhibition of binding of 87.92.6 to R1.1 thymoma cells: FIG. 29; for inhibition of binding of 87.92.6 to R1.1 thymoma cells: R1.1 cells
Experimental: The ability of peptides to inhibit antibody binding to cells was determined by preincubation of the cells with varying amounts of inhibitor (in 100 μl dH2O) for between 30 minutes and 1 hour at 23° C. Cells (either L cells or R1.1 cells) were washed in 1% BSA/PBS/0.1% NaN3, and resuspended at 10^7/ml. 100 μl of cells were then added in 1% BSA/PBS/0.1% NaN3, and the incubation continued for 20-30 minutes. Antibodies (5 or 10 μl were added for an additional 20 minutes at 23° C. Ice cold 1% BSA/PBS/0.1% NaN3, was added, the cells centrifuged and washed prior to counterstaining with a 1:100 dilution of FITC goat anti-mouse Ig (Fisher Scientific) in 1% BSA/PBS/0.1% NaN3. The cells were washed twice and fluorescence intensity determined. Inhibition of binding was calculated as noted above with mean channel number utilized in place of CPM.
To assess the affinity of the cyclic peptides for the reovirus type 3 receptor (Reo3R), they were utilized in a series of assays to inhibit binding of 87.92.6 or control antibodies to specific receptors. […] The inhibition by VLC9C16 peptide was specific as binding of isotype matched monoclonal H013.4 to Thy2 molecules was not inhibited by VLC9C16 peptide (FIG. 30). Thus, VLC9C16 peptide is a specific Reo3R ligand with enhanced affinity compared with its linear analog.

[10] = test system: neutralizing monoclonal antibody 9BG5; format: binding, mouse
reovirus type 1 [11] = test system: reovirus type 1; parameters: species or system Balb/c mice; conditions: mouse, in vivo
reovirus type 3 [12] = test system: reovirus type 3; parameters: species or system Balb/c mice; conditions: mouse, in vivo
reovirus type 3 [13] = test system: reovirus type 3; parameters: species or system Balb/c mice; conditions: mouse, in vivo; remark: listed apart in the source
reovirus type 1 [14] = test system: reovirus type 1; parameters: species or system Balb/c mice; conditions: mouse, in vivo; remark: listed apart in the source
9B.G5 = assay: Competitive RIA: inhibition of 9B.G5 - 87.92.6 interaction; format: binding; conditions: liquid phase assay, FIGS. 25 and 26

Substance: Cys-Lys-Pro-Gly-Lys-Thr-Asn-Lys-Leu-Leu-Ile-Tyr-Ser-Gly-Ser-Thr-Leu-Gln (CKPGKTNKLLIYSGSTLQ; also: dimeric) [VLSH peptide]
- inhibition of DNA synthesis by L cells (L cells): marked inhibition
- expression of Thy 1.2 molecules [1]: does not effect
- expression of Thy 1.2 molecules (decrease in mean channel fluorescence) ([1]; peptides 100 μg/ml, FIG. 6): without effecting
- level of expression of the reovirus type 3 receptor [2]: specifically down-modulates
- reovirus type 3 receptor expression (decrease in mean channel fluorescence) [2]: specifically down-modulated
- inhibition of spontaneous lymphocyte proliferation [3]: markedly inhibited

Substance: KPGKTNKCLIYSGSTCQ (cysteine pairing not given here) [VLC8C16 peptide]
- molecular form following oxidation by size-exclusion chromatography [4]: remained chiefly as monomers
- rate of loss of sulfhydryls [5]: most rapid loss of sulfhydryls

Substance: KPGKTNKLLCYSGSTCQ (cysteine pairing not given here) [VLC10C16 peptide]
- molecular form following oxidation by size-exclusion chromatography [4]: migrated more rapidly
- rate of loss of sulfhydryls [5]: more slowly

Substance: KPGKTNKLLIYAGSTLQ [VLA12]
- binding to the reovirus type 3 receptor compared with VL peptide [6]: reduced binding to the reovirus type 3 receptor
- binding to neutralizing monoclonal antibody 9BG5, variant peptide compared with VL peptide (monoclonal antibody 9BG5): reduced binding to neutralizing monoclonal antibody
- inhibition of con A induced lymphocyte proliferation [3]: attenuated
- biologic activity compared with VL peptide [3]: reduced biologic activity

Substance: KPGKTNKLLIYSASTLQ [VLA13]
- binding to neutralizing monoclonal antibody 9BG5, variant peptide compared with VL peptide (monoclonal antibody 9BG5): increased binding
- inhibition of con A induced lymphocyte proliferation [3]: increased effect

Substance: KPGKTNKLLIYSGSALQ [VLA15]
- binding to the reovirus type 3 receptor compared with VL peptide [6]: decreased binding to the reovirus type 3 receptor
- binding to neutralizing monoclonal antibody 9BG5, variant peptide compared with VL peptide (monoclonal antibody 9BG5): increased binding to neutralizing monoclonal antibody
- inhibition of con A induced lymphocyte proliferation [3]: attenuated
- biologic activity compared with VL peptide [3]: decreased biological activity

Substance: KPGKTNKLLIYSGSTLQ [VL peptide, amino acids 39-55 of the light chain variable region of 87.92.6]
- inhibition of DNA synthesis by L cells (L cells): no effect
- inhibition of binding of variant K to L cells ([6]; FIGS. 11A and 11B): inhibits binding
- inhibition of binding of reovirus type 3 to L cells ([6]; FIGS. 11A-D): inhibits binding
- inhibition of binding of reovirus type 1 to cells ([6]; reovirus type 1 utilizes a distinct receptor): not inhibited
- DTH response to reovirus type 1 after immunization with peptide (reovirus type 1 [7]): did not demonstrate significant DTH responses
- DTH response to reovirus type 3 after immunization with peptide (reovirus type 3 [8]; footpad challenge with virus, FIGS. 15A and 15B): significant DTH responses
- DTH to the peptide in animals primed with type 3 virus (reovirus type 3 [8]; priming with type 3 virus, challenge with peptide): significant DTH
- inhibition of binding of 87.92.6 to murine L cells [9]: less effective competitor
- inhibition of binding of 87.92.6 to R1.1 thymoma cells [9]: ineffectual
- specific binding of 9BG5 to peptide coated wells [10]: small amount of binding
- inhibition of binding of reovirus type 3 particles to 9BG5 (monoclonal antibody 9BG5; FIGS. 10A-C): inhibits binding
- reovirus type 3 receptor expression (decrease in mean channel fluorescence) [2]: no effect
- inhibition of spontaneous lymphocyte proliferation [3]: no significant effect

Substance: KSGNASTPQQLQNLTLDIRQR [control peptide, control peptide, unrelated to this system, reference compound]
- binding of immune serum to type 1 virus coated plates (reovirus type 1 [11]): bound poorly
- binding of immune serum to type 3 virus coated plates (reovirus type 3 [12]): bound poorly
- specific binding of 9BG5 to peptide coated wells [10]: No significant binding
- neutralization of L-cell lysis by reovirus type 3 by immune serum (reovirus type 3 [13]): no effect
- neutralization of L-cell lysis by reovirus type 1 by immune serum (reovirus type 1 [14]): no effect

Substance: QGLEWIGRIDPANG [VH peptide, amino acids 43-56 of the heavy chain variable region of 87.92.6 including CDR II]
- expression of Thy 1.2 molecules [1]: does not effect
- interaction with the reovirus type 3 receptor (Reo3R) [9]: does not significantly interact
- inhibition of binding of 87.92.6 to murine L cells [9]: no effect
- inhibition of binding of 87.92.6 to R1.1 thymoma cells [9]: no effect
- specific binding of 9BG5 to peptide coated wells [10]: only achieved background levels
- level of expression of the reovirus type 3 receptor [2]: does not effect
- inhibition of 9B.G5 - 87.92.6 interaction (9B.G5): able to inhibit
